Test results: paper PMC9649653, “Biochemical and structural basis for differential inhibitor sensitivity of EGFR with distinct exon 19 mutations” (Nature Communications, 2022)
Where “and” joins values, the source holds several entries; their conditions need not be identical. Equal entries are not always repeated. Where two headings read alike, the source gives them in different places.

What was measured:
EGFR TKD ΔE746-T751InsA = target: T1, EGFR TKD ΔE746-T751InsA (Homo sapiens, UniProt P00533, DEL746-750/T751A); assay: Michaelis-Menten kinetics (KM,ATP, KM,pept); type: biochemical
T1 construct: 6x His (N); made in house; host or cells: Spodoptera frugiperda Sf9 (baculovirus)
Experimental: (§1) Reactions were carried out in a 384-well assay plate format at 30 °C and initiated with the addition of AQpeptide after 5 min incubation of EGFR with ATP. Progress curves of phosphorylated peptide accumulation were monitored using a BioTek Synergy microplate reader with a fluorescence intensity module excitation and emission wavelength at 360 nm and 480 nm, respectively.
(§2) Initial velocities (νo) at different ATP concentrations were determined by inspecting progress curves during the steady state phase. The νo values were plotted against ATP concentration, and the curves fit to the Michaelis-Menten equation to estimate KM, ATP as well as Vmax using GraphPad Prism.

EGFR TKD ΔS752-I759 = target: T2, EGFR TKD ΔS752-I759 (Homo sapiens, UniProt P00533, DEL752-759); assay: Michaelis-Menten kinetics (KM,ATP, KM,pept); type: biochemical
T2 construct: 6x His (N); made in house; host or cells: Spodoptera frugiperda Sf9 (baculovirus)

EGFR TKD ΔL747-P753InsS = target: T3, EGFR TKD ΔL747-P753InsS (Homo sapiens, UniProt P00533, DEL747-752/P753S); assay: Michaelis-Menten kinetics (KM,ATP, KM,pept); type: biochemical
T3 construct: 6x His (N); made in house; host or cells: Spodoptera frugiperda Sf9 (baculovirus)

EGFR TKD L858R = target: T4, EGFR TKD L858R (Homo sapiens, UniProt P00533, L858R); assay: Michaelis-Menten kinetics (KM,ATP, KM,pept); type: biochemical
T4 construct: 6x His (N); made in house; host or cells: Spodoptera frugiperda Sf9 (baculovirus)

EGFR TKD L858R/T790M = target: T5, EGFR TKD L858R/T790M (Homo sapiens, UniProt P00533, L858R/T790M); assay: Michaelis-Menten kinetics (KM,ATP, KM,pept); type: biochemical; conditions: read-out: Best fit KM,ATP; individual experiments (Fig. 3b data)
T5 construct: 6x His (N); made in house; host or cells: Spodoptera frugiperda Sf9 (baculovirus)
Experimental: as §1, §2

EGFR TKD L747P = target: T6, EGFR TKD L747P (Homo sapiens, UniProt P00533, L747P); assay: Michaelis-Menten kinetics (KM,ATP, KM,pept); type: biochemical
T6 construct: 6x His (N); made in house; host or cells: Spodoptera frugiperda Sf9 (baculovirus)

EGFR TKD ΔE746-A750 = target: T7, EGFR TKD ΔE746-A750 (Homo sapiens, UniProt P00533, DEL746-750); assay: Michaelis-Menten kinetics (KM,ATP, KM,pept); type: biochemical; conditions: read-out: Best fit KM,ATP; individual experiments (Fig. 3b data)
T7 construct: 6x His (N); made in house; host or cells: Spodoptera frugiperda Sf9 (baculovirus)
Experimental: as §1, §2

EGFR TKD ΔL747-E749 = EGFR TKD ΔL747-E749 (Homo sapiens, UniProt P00533, DEL747-749); assay: Michaelis-Menten kinetics (KM,ATP)
Experimental: as §1, §2

EGFR TKD ΔL747-A750InsP = target: T8, EGFR TKD ΔL747-A750InsP (Homo sapiens, UniProt P00533, A750P/DEL747-749); assay: Michaelis-Menten kinetics (KM,ATP, KM,pept); type: biochemical
T8 construct: 6x His (N); made in house; host or cells: Spodoptera frugiperda Sf9 (baculovirus)

EGFR TKD ΔL747-T751InsP = target: T9, EGFR TKD ΔL747-T751InsP (Homo sapiens, UniProt P00533, DEL747-750/T751P); assay: Michaelis-Menten kinetics (KM,ATP, KM,pept); type: biochemical; conditions: read-out: Best fit KM,ATP; individual experiments (Fig. 3b data)
T9 construct: 6x His (N); made in house; host or cells: Spodoptera frugiperda Sf9 (baculovirus)
Experimental: as §1, §2

wild type EGFR TKD = target: T10, wild type EGFR TKD (Homo sapiens, UniProt P00533); assay: Michaelis-Menten kinetics (KM,ATP, KM,pept); type: biochemical
T10 construct: hexa-histidine (6x His) (N); made in house; host or cells: Spodoptera frugiperda Sf9 (baculovirus, pFastBac1)

[1] = read-out: Best fit KM,ATP, individual experiments (Fig. 3b data)
[2] = read-out: KM, ATP, 20 μM peptide, mean ± SD

SMILES: Nc1ncnc2c1ncn2[C@@H]1O[C@H](COP(=O)(O)OP(=O)(O)OP(=O)(O)O)[C@@H](O)[C@H]1O [ATP]
- Km (EGFR TKD ΔE746-T751InsA; [1]): 216 µM and 285 µM and 228 µM and 263 µM and 287 µM and 318 µM
- Km (EGFR TKD ΔE746-T751InsA; [2]): 240 ± 59 µM
- Km (EGFR TKD ΔS752-I759; [1]): 124 µM (2×) and 122 µM and 82.8 µM (2×) and 79.2 µM and 65.9 µM and 75.6 µM and 64.3 µM
- Km (EGFR TKD ΔS752-I759; [2]): 91 ± 25 µM
- Km (EGFR TKD ΔL747-P753InsS; [1]): 115 µM and 93.7 µM and 90.2 µM and 86 µM and 70.3 µM and 87.6 µM and 138 µM and 132 µM and 99.9 µM
- Km (EGFR TKD ΔL747-P753InsS; [2]): 101 ± 22 µM
- Km (EGFR TKD L858R; [1]): 89.3 µM and 87.4 µM and 87.6 µM and 63.1 µM and 77.3 µM and 74.5 µM and 60.1 µM and 51.1 µM
- Km (EGFR TKD L858R; [2]): 74 ± 14 µM
- Km (EGFR TKD L858R/T790M): 48 µM and 47.5 µM and 38.9 µM and 35.3 µM and 47.4 µM and 56.3 µM and 50.7 µM
- KM, ATP for L747P smaller than for ΔE746-A750 (EGFR TKD L747P): 7.5 fold
- Km (EGFR TKD L747P; [1]): 16.8 µM and 14.6 µM and 12.5 µM and 19.3 µM and 21.2 µM and 21.7 µM and 28.8 µM and 29.4 µM and 26 µM
- Km (EGFR TKD L747P; [2]): 21 ± 6 µM
- Km (EGFR TKD ΔE746-A750): 194 µM and 149 µM and 116 µM and 126 µM
- Km (EGFR TKD ΔL747-E749; [1]): 10.3 µM and 8.84 µM and 8.25 µM and 18.4 µM and 22.3 µM and 26.3 µM and 7.28 µM and 5.87 µM and 5.78 µM
- Km (EGFR TKD ΔL747-E749; [2]): 13 ± 8 µM
- Km (EGFR TKD ΔL747-A750InsP; [1]): 23.6 µM and 15.4 µM and 18.7 µM and 31.1 µM and 32.5 µM and 29.2 µM and 22.7 µM and 20.1 µM and 16.8 µM
- Km (EGFR TKD ΔL747-A750InsP; [2]): 23 ± 6 µM
- Km (EGFR TKD ΔL747-T751InsP): 93.5 µM and 183 µM and 100 µM and 217 µM and 135 µM and 204 µM and 224 µM
- Km (wild type EGFR TKD; [1]): 9.32 µM and 7.22 µM and 7.98 µM and 15.8 µM and 15.6 µM and 15 µM and 12.6 µM and 10.1 µM
- Km (wild type EGFR TKD; [2]): 12 ± 3 µM
